Reference: patent US20080176813A1, “CARBOCYCLIC NUCLEOSIDES AND PROCESS FOR OBTAINING SUCH” (STICHTING REGA VZW, priority 1999, published 2008)
Converted amounts (≈) assume the structure as drawn. Like-named read-outs stand apart in the source and are kept apart here.

Assays:
[1] = test system: VZV and CMV; experiment: Potency against VZV and CMV; format: cell-based
Method: (§1) The anti-herpesvirus activity of D-cyclohexene G and L-cyclohexene G and the respective adenine analogues was determined in human embryonic skin muscle fibroblast (E6SM: HSV-1, HSV-2) and in human embryonic lung (HEL) cells [varicella-zoster virus (VZV), cytomegalovirus (CMV)] (Table I).

[2] = test system: HeLa, Vero, E6SM, HEL
[3] = Cytotoxicity, alteration of cell morphology
Method: as §1

[4] = test system: Vero; experiment: Cytotoxicity, alteration of cell morphology; format: cell-based
[5] = test system: HeLa; experiment: Cytotoxicity, alteration of cell morphology; format: cell-based
[6] = test system: VZV (YS); experiment: Antiviral activity, virus plaque formation in HEL cells; format: cell-based, varicella-zoster virus; details: for Selectivity index: HEL
Method: as §1

[7] = test system: HSV-2 (196); experiment: Antiviral activity, virus-induced cytopathogenicity in E6SM cell cultures; format: cell-based; details: for Selectivity index: E6SM; for IC50: Human alphaherpesvirus 2, read-out: Activity: minimum inhibitory concentration required to reduce virus-induced cytopathogenicity by 50% (IC50), E6SM cell cultures
Method: as §1

[8] = test system: HSV-1 (KOS); experiment: as above; format: cell-based; details: for Selectivity index: E6SM; for IC50: Human alphaherpesvirus 1, read-out: Activity: minimum inhibitory concentration required to reduce virus-induced cytopathogenicity by 50% (IC50), E6SM cell cultures
Method: as §1

[9] = test system: HSV-1 (McIntyre); experiment: as above; format: cell-based; details: for Selectivity index: E6SM; for IC50: Human alphaherpesvirus 1, read-out: Activity: minimum inhibitory concentration required to reduce virus-induced cytopathogenicity by 50% (IC50), E6SM cell cultures
Method: as §1

[10] = test system: HSV-1 (TK−KOS ACVf); experiment: as above; format: cell-based; details: for Selectivity index: HSV-1 (TK−KOS ACVf), E6SM; for IC50: Human alphaherpesvirus 1, E6SM, read-out: Activity: minimum inhibitory concentration required to reduce virus-induced cytopathogenicity by 50% (IC50)
Method: as §1

[11] = test system: HSV-1 (F); experiment: as above; format: cell-based; details: for Selectivity index: E6SM; for IC50: Human alphaherpesvirus 1, read-out: Activity: minimum inhibitory concentration required to reduce virus-induced cytopathogenicity by 50% (IC50), E6SM cell cultures
Method: as §1

[12] = test system: HSV-2 (G); experiment: as above; format: cell-based; details: for Selectivity index: E6SM; for IC50: Human alphaherpesvirus 2, read-out: Activity: minimum inhibitory concentration required to reduce virus-induced cytopathogenicity by 50% (IC50), E6SM cell cultures
Method: as §1

[13] = test system: HSV-2 (Lyons); experiment: as above; format: cell-based; details: for Selectivity index: E6SM; for IC50: Human alphaherpesvirus 2, read-out: Activity: minimum inhibitory concentration required to reduce virus-induced cytopathogenicity by 50% (IC50), E6SM cell cultures
Method: as §1

[14] = test system: HSV-1 (TK−/TKf VMW1837); experiment: as above; format: cell-based; details: for Selectivity index: HSV-1 (TK−/TKf VMW1837), E6SM; for IC50: Human alphaherpesvirus 1, E6SM, read-out: Activity: minimum inhibitory concentration required to reduce virus-induced cytopathogenicity by 50% (IC50)
Method: as §1

[15] = test system: HEL; experiment: Cytotoxicity, cell growth; details: HEL (footnote b)
[16] = test system: CMV (AD 169); experiment: Antiviral activity, virus plaque formation in HEL cells; format: cell-based, cytomegalovirus; details: for Selectivity index: HEL; for IC50: Human betaherpesvirus 5, read-out: Activity: inhibitory concentration required to reduce virus plaque formation by 50% (IC50), HEL cells, virus input 20 PFU
Method: as §1

[17] = test system: CMV (Davis); experiment: as above; format: cell-based, cytomegalovirus; details: for Selectivity index: HEL; for IC50: Human betaherpesvirus 5, read-out: Activity: inhibitory concentration required to reduce virus plaque formation by 50% (IC50), HEL cells, virus input 20 PFU
Method: as §1

[18] = test system: VZV (TK−YS/R); experiment: microbe, parasite or virus in culture; format: cell-based, varicella-zoster virus; details: for IC50: Human alphaherpesvirus 3, HEL, read-out: Activity: inhibitory concentration required to reduce virus plaque formation by 50% (IC50); for Selectivity index: VZV (TK−YS/R), HEL
Method: as §1

[19] = test system: VZV (TK−07/1); experiment: microbe, parasite or virus in culture; format: cell-based, varicella-zoster virus; details: for IC50: Human alphaherpesvirus 3, HEL, read-out: Activity: inhibitory concentration required to reduce virus plaque formation by 50% (IC50); for Selectivity index: VZV (TK−07/1), HEL
Method: as §1

[20] = test system: VZV (OKA); experiment: microbe, parasite or virus in culture; format: cell-based, varicella-zoster virus; details: for IC50: Human alphaherpesvirus 3, HEL, read-out: Activity: inhibitory concentration required to reduce virus plaque formation by 50% (IC50); for Selectivity index: VZV (OKA), HEL
Method: as §1

[21] = test system: HEL; experiment: Cytotoxicity, HEL (footnote c not given); details: HEL (footnote c, not defined)
Method: as §1

[22] = Human alphaherpesvirus 3, read-out: Activity: inhibitory concentration required to reduce virus plaque formation by 50% (IC50), VZV (YS), HEL cells, virus input 20 PFU

Structure (SMILES) | Minimum cytotoxic concentration causing a microscopically detectable alteration of cell morphology ([3]; E8SM) | Minimum cytotoxic concentration causing a microscopically detectable alteration of cell morphology [4] | Minimum cytotoxic concentration causing a microscopically detectable alteration of cell morphology [5] | IC50 [6, 22] | IC50 [7] | IC50 [8] | IC50 [9] | IC50 [10] | IC50 [11] | IC50 [12] | IC50 [13] | IC50 [14] | Cytotoxic concentration required to reduce cell growth by 50% [15] | IC50 [16] | IC50 [17] | IC50 [18] | IC50 [19] | IC50 [20] | Cytotoxicity (concentration) [21] | other results
Nc1nc2c(ncn2[C@H]2C=C[C@@H](CO)[C@H](O)C2)c(=O)[nH]1 [L-cyclohexenyl G, 9-[(1R,4S,5R)-5-Hydroxy-4-hydroxymethyl-2-cyclohexenyl]guanine] | >18 μg/ml | 400 μg/ml | 400 μg/ml | 1.2 µg/mL (≈ 4.33 µM) | 0.1 µg/mL (≈ 0.361 µM) | 0.003 µg/mL (≈ 0.0108 µM) | 0.004 µg/mL (≈ 0.0144 µM) | 1.28 µg/mL (≈ 4.62 µM) | 0.003 µg/mL (≈ 0.0108 µM) | 0.07 µg/mL (≈ 0.252 µM) | 0.07 µg/mL (≈ 0.252 µM) | 0.01 µg/mL (≈ 0.0361 µM) | >20 µg/mL | 1.5 µg/mL (≈ 5.41 µM) | 1.7 µg/mL (≈ 6.13 µM) | 6.8 µg/mL (≈ 24.5 µM) | 5.8 µg/mL (≈ 20.9 µM) | 1.9 µg/mL (≈ 6.85 µM) | >20 µg/mL | Potency relative to D-cyclohexene G (fold lower) [1]: about 2 fold; Toxicity in four different cell lines [2]: did not show toxicity; melting point: 255 °C (dec.); Selectivity index ([6]; VZV (YS)): >16; Selectivity index [7]: >1.6 10^2; Selectivity index [8]: >5.10^3; Selectivity index [9]: >4.10^3; Selectivity index [10]: >12; Selectivity index [11]: >5.10^3; Selectivity index [12]: >2.2 10^2; Selectivity index [13]: >2.2 10^2; Selectivity index [14]: >1.6 10^3; Selectivity index [16]: >13; Selectivity index [17]: >12; Selectivity index [18]: >3; Selectivity index [19]: >3; Selectivity index [20]: >10
Nc1nc2c(ncn2COCCO)c(=O)[nH]1 [Acyclovir, reference compound] | – | – | – | 1.1 µg/mL (≈ 4.88 µM) | 0.02 µg/mL (≈ 0.0888 µM) | 0.01 µg/mL (≈ 0.0444 µM) | 0.005 µg/mL (≈ 0.0222 µM) | 9.6 µg/mL (≈ 42.6 µM) | 0.003 µg/mL (≈ 0.0133 µM) | 0.02 µg/mL (≈ 0.0888 µM) | 0.02 µg/mL (≈ 0.0888 µM) | 0.07 µg/mL (≈ 0.311 µM) | – | – | – | – | – | – | – | –
O=c1[nH]c(=O)n([C@H]2C[C@H](O)[C@@H](CO)O2)cc1/C=C/Br [Brivudin, reference compound] | ≧400 μg/ml | ≧400 μg/ml | ≧400 μg/ml | – | > 80 µg/mL | 0.001 µg/mL (≈ 0.003 µM) | 0.001 µg/mL (≈ 0.003 µM) | > 80 µg/mL | 0.001 µg/mL (≈ 0.003 µM) | > 80 µg/mL | > 80 µg/mL | > 80 µg/mL | >50 µg/mL | – | – | > 50 µg/mL | > 20 µg/mL | 0.003 µg/mL (≈ 0.00901 µM) | >200 µg/mL | IC50 ([6]; Human alphaherpesvirus 3, HEL, read-out: Activity: inhibitory concentration required to reduce virus plaque formation by 50% (IC50)): 0.03 µg/mL (≈ 0.0901 µM)
Nc1nc2c(ncn2[C@@H]2C=C[C@H](CO)[C@@H](O)C2)c(=O)[nH]1 [D-cyclohexenyl G, 9-[(1S,4R,5S)-5-hydroxy-4-hydroxymethyl-2-cyclohexenyl]guanine] | >400 μg/ml | 400 μg/ml | 400 μg/ml | 0.49 µg/mL (≈ 1.77 µM) | 0.07 µg/mL (≈ 0.252 µM) | 0.002 µg/mL (≈ 0.00721 µM) | 0.004 µg/mL (≈ 0.0144 µM) | 0.38 µg/mL (≈ 1.37 µM) | 0.002 µg/mL (≈ 0.00721 µM) | 0.05 µg/mL (≈ 0.18 µM) | 0.07 µg/mL (≈ 0.252 µM) | 0.01 µg/mL (≈ 0.0361 µM) | >20 µg/mL | 0.6 µg/mL (≈ 2.16 µM) | 0.8 µg/mL (≈ 2.89 µM) | 2.8 µg/mL (≈ 10.1 µM) | 2.1 µg/mL (≈ 7.57 µM) | 0.64 µg/mL (≈ 2.31 µM) | 11 µg/mL | Toxicity in four different cell lines [2]: did not show toxicity; Selectivity index ([6]; VZV (YS)): >40; Selectivity index [7]: >5.10^3; Selectivity index [8]: >2.10^5; Selectivity index [9]: >1.10^5; Selectivity index [10]: >1.10^3; Selectivity index [11]: >2.10^5; Selectivity index [12]: >8.10^3; Selectivity index [13]: >5.10^3; Selectivity index [14]: >4.10^4; Selectivity index [16]: >30; Selectivity index [17]: >25; Selectivity index [18]: >7; Selectivity index [19]: >10; Selectivity index [20]: >30
Nc1ccn(C[C@@H](CO)OCP(=O)(O)O)c(=O)n1 [Cidolovir, reference compound] | – | – | – | – | – | – | – | – | – | – | – | – | >50 µg/mL | 0.08 µg/mL (≈ 0.287 µM) | 0.2 µg/mL (≈ 0.716 µM) | – | – | – | >50 µg/mL | –
Nc1ncnc2c1ncn2[C@@H]1C=C[C@H](CO)[C@@H](O)C1 [Compound 36, 9-[(1S,4R,5S)-5-Hydroxy-4-hydroxymethyl-2-cyclohexenyl]adenine] | – | – | – | – | – | – | – | – | – | – | – | – | – | – | – | – | – | – | – | melting point: 90 to 92 °C
Nc1nc(O)c2ncn(COC(CO)CO)c2n1 [Ganciclovir, reference compound] | – | – | – | – | 0.001 µg/mL (≈ 0.00392 µM) | 0.001 µg/mL (≈ 0.00392 µM) | 0.001 µg/mL (≈ 0.00392 µM) | 0.48 µg/mL (≈ 1.88 µM) | 0.001 µg/mL (≈ 0.00392 µM) | 0.002 µg/mL (≈ 0.00784 µM) | 0.001 µg/mL (≈ 0.00392 µM) | 0.01 µg/mL (≈ 0.0392 µM) | >50 µg/mL | 0.6 µg/mL (≈ 2.35 µM) | 0.8 µg/mL (≈ 3.13 µM) | – | – | – | >50 µg/mL | Minimum cytotoxic concentration causing a microscopically detectable alteration of cell morphology ([3]; human): >100 μg/ml
